Measurements published in patent US20260374766A1, “METHODS FOR TREATING CANCER” (Antares Therapeutics, Inc., priority 2022, published 2026).
pIC50, pKd: −log10 of the molar value.

Experiments:
[1] = test system: NUGC3 p53 Y220C; test: Cell Proliferation Assay (CellTiter-Glo, CTG), NUGC3 p53 Y220C; assay type: cell-based; conditions: Homo sapiens, NUGC-3, 120 h, CellTiter-Glo, NUGC3 p53 Y220C, 5 days
Procedure, shortened: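 Tet-One inducible p53 Y220C or R273H constructs were stably introduced into NCI-H1299 by lentiviral transduction; NUGC3 was used as is. Cells (250-500 per well) were exposed to compound for 5 days, then CellTiter-Glo was added for 10 min at room temperature and IC50 was calculated from luminescence.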

[2] = biological target: T1, p53 Y220C mutant protein (amino acid residues 94-293) (Homo sapiens, UniProt P04637, Y220C); test: Thermal Shift Assay (TSA), dTM; assay type: binding; conditions: thermal shift; for ΔTm at 100 µM: 100 uM compound, read-out: TSA P53 Y220C dTM (100 uM); for ΔTm at 10 µM: 10 uM compound, read-out: TSA P53 Y220C dTM (10 uM)
T1 construct: p53 Y220C mutant protein (amino acid residues 94-293)
Procedure, shortened: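 5 μM p53 Y220C (residues 94-293) incubated 3 h at 20 °C with 10 μM or 100 μM compound in 20 mM HEPES pH 7.4, 100 mM NaCl, 0.01% Pluronic F-127, 1% DMSO plus Sypro Orange. Melt from 30 to 50 °C at 0.03 °C/s; TM from Boltzmann two-state fit.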

[3] = biological target: T1, p53 Y220C mutant protein (amino acid residues 94-293); test: Surface Plasmon Resonance (SPR) assay, Kd_kinetic; assay type: binding; conditions: SPR, kinetic KD, p53 Y220C; read-out: SPR P53 Y220C KD kinetic
Procedure, shortened: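 Surface plasmon resonance is run at 16 or 20 °C in 50 mM Tris pH 7.5 containing 100 mM NaCl, 1 mM DTT, 0.01% Brij35, 0.05% Tween-20 and 1% DMSO. Association and dissociation data are fitted to a 1:1 model.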

[4] = test system: H1299 p53 R273H; test: Cell Proliferation Assay (CellTiter-Glo, CTG), H1299 p53 R273H (NClH1299-inducible p53 R273H); assay type: cell-based; conditions: Homo sapiens, NCI-H1299, 120 h, CellTiter-Glo, H1299 p53 R273H, 5 days
Procedure, shortened: (§1)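 Cells seeded at 250-500 per well and exposed to compound for 5 days. Viability read by CellTiter-Glo luminescence after 10 min at room temperature; IC50 calculated. H1299 lines carry Tet-One inducible p53 mutant constructs introduced by lentiviral transduction.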

[5] = test system: H1299 p53 Y220C; test: Cell Proliferation Assay (CellTiter-Glo, CTG), H1299 p53 Y220C (NClH1299-inducible p53 Y220C); assay type: cell-based; conditions: Homo sapiens, NCI-H1299, 120 h, CellTiter-Glo, H1299 p53 Y220C, 5 days
Procedure, shortened: as §1

[6] = biological target: p53 Y220C (Homo sapiens, UniProt P04637, Y220C); test: Luciferase Reporter Assay (Luc), p53 response element, NClH1299 cells with inducible p53 Y220C; assay type: cell-based; conditions: luciferase reporter, NClH1299 inducible p53 Y220C, 6 hour; for Emax: 10 uM tool compound as positive control; for AC50: read-out: Luc P53 Y220C AC50
Procedure, shortened: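 H1299 cells induced with 0.5 ug/mL doxycycline for 24 hours, then exposed to compound for 6 hours. p53 response-element luciferase read by One-Glo luminescence after 5 min shaking at room temperature.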

SMILES | pIC50 [1] | ΔTm at 100 µM [2] | pKd [3] | pIC50 [4] | pIC50 [5] | Emax [6] | AC50 [6] | ΔTm at 10 µM [2]
CN1CC[C@@H](Nc2cccn3c(CC(F)(F)F)c(C#C[C@H](O)c4ccccc4)nc23)[C@@H](F)C1 [Example 73, (1R)-3-(8-{[(3S,4R)-3-fluoro-1-methylpiperidin-4-yl]amino}-3-(2,2,2-trifluoroethyl)imidazo[1,2-a]pyridin-2-yl)-1-phenylprop-2-yn-1-ol] | 5.52 to 5.82 | 5 to 10 °C | 6.00 to 7.00 | > 5.30 | 5.52 to 5.82 | < 70% | > 3000 nM | –
CN1CC[C@@H](Nc2cccn3c(CC(F)(F)F)c(C#CCCN)nc23)[C@@H](F)C1 [Example 74, (3S,4R)—N-[2-(4-aminobut-1-yn-1-yl)-3-(2,2,2-trifluoroethyl)imidazo[1,2-a]pyridin-8-yl]-3-fluoro-1-methylpiperidin-4-amine] | < 5.52 | 5 to 10 °C | 6.00 to 7.00 | ≤ 5.00 | < 5.52 | < 70% | > 3000 nM | –
CN1CC[C@@H](Nc2cccn3c(CC(F)(F)F)c(C#CCNc4ccc(S(C)(=O)=O)cc4)nc23)[C@@H](F)C1 [Example 76, (3S,4R)-3-fluoro-N-(2-{3-[(4-methanesulfonylphenyl)amino]prop-1-yn-1-yl}-3-(2,2,2-trifluoroethyl)imidazo[1,2-a]pyridin-8-yl)-1-methylpiperidin-4-amine] | 5.82 to 6.12 | 5 to 10 °C | > 8.00 | ≤ 5.00 | 5.82 to 6.12 | 70 to 80% | 1500 to 3000 nM | –
COc1cc(S(=O)(=O)C(C)C)ccc1NCC#Cc1nc2c(N[C@@H]3CCN(C)C[C@@H]3F)cccn2c1CC(F)(F)F [Example 77, (3S,4R)-3-fluoro-N-[2-(3-{[2-methoxy-4-(propane-2-sulfonyl)phenyl]amino}prop-1-yn-1-yl)-3-(2,2,2-trifluoroethyl)imidazo[1,2-a]pyridin-8-yl]-1-methylpiperidin-4-amine] | > 6.12 | ≥ 10 °C | > 8.00 | 5.10 to 5.30 | > 6.12 | 70 to 80% | < 750 nM | –
COc1cc(S(=O)(=O)C(C)C)ccc1NCC#Cc1nc2c(N[C@@H]3CCN(C)C[C@@H]3F)cccn2c1SC(F)(F)F [Example 78, (3S,4R)-3-fluoro-N-[2-(3-{[2-methoxy-4-(propane-2-sulfonyl)phenyl]amino}prop-1-yn-1-yl)-3-[(trifluoromethyl)sulfanyl]imidazo[1,2-a]pyridin-8-yl]-1-methylpiperidin-4-amine] | > 6.12 | ≥ 10 °C | > 8.00 | ≤ 5.00 | > 6.12 | 80 to 90% | < 750 nM | –
CCS(=O)(=O)c1ccc(NCC#Cc2nc3c(N[C@@H]4CCN(C)C[C@@H]4F)cccn3c2SC(F)(F)F)c(OC)c1 [Example 79, (3S,4R)—N-[2-(3-{[4-(ethanesulfonyl)-2-methoxyphenyl]amino}prop-1-yn-1-yl)-3-[(trifluoromethyl)sulfanyl]imidazo [1,2-a]pyridin-8-yl]-3-fluoro-1-methylpiperidin-4-amine] | > 6.12 | ≥ 10 °C | > 8.00 | 5.00 to 5.10 | > 6.12 | 80 to 90% | < 750 nM | –
CCS(=O)(=O)c1ccc(NCC#Cc2nc3c(N[C@@H]4CCNC[C@@H]4F)cccn3c2SC(F)(F)F)c(OC)c1 [Example 80, (3S,4R)—N-[2-(3-{[4-(ethanesulfonyl)-2-methoxyphenyl]amino}prop-1-yn-1-yl)-3-[(trifluoromethyl)sulfanyl]imidazo[1,2-a]pyridin-8-yl]-3-fluoropiperidin-4-amine] | > 6.12 | ≥ 10 °C | > 8.00 | 5.10 to 5.30 | > 6.12 | 80 to 90% | < 750 nM | –
COc1cc(S(=O)(=O)C2CC2)ccc1NCC#Cc1nc2c(N[C@@H]3CCN(C)C[C@@H]3F)cccn2c1SC(F)(F)F [Example 81, (3S,4R)—N-[2-(3-{[4-(cyclopropanesulfonyl)-2-methoxyphenyl]amino}prop-1-yn-1-yl)-3-[(trifluoromethyl)sulfanyl]imidazo[1,2-a]pyridin-8-yl]-3-fluoro-1-methylpiperidin-4-amine] | > 6.12 | ≥ 10 °C | > 8.00 | 5.10 to 5.30 | > 6.12 | 80 to 90% | < 750 nM | –
COc1cc(S(C)(=O)=O)ccc1NCC#Cc1nc2c(N[C@@H]3CCN(C)C[C@@H]3F)cccn2c1SC(F)(F)F [Example 82, (3S,4R)-3-fluoro-N-(2-{3-[(4-methanesulfonyl-2-methoxyphenyl)amino]prop-1-yn-1-yl}-3-[(trifluoromethyl)sulfanyl]imidazo[1,2-a]pyridin-8-yl)-1-methylpiperidin-4-amine] | > 6.12 | ≥ 10 °C | > 8.00 | 5.00 to 5.10 | > 6.12 | 80 to 90% | < 750 nM | –
COc1cc(S(C)(=O)=O)ccc1NCC#Cc1nc2c(N[C@@H]3CCNC[C@@H]3F)cccn2c1SC(F)(F)F [Example 83] | > 6.12 | ≥ 10 °C | > 8.00 | 5.10 to 5.30 | > 6.12 | 70 to 80% | < 750 nM | ≥ 10 °C
COc1ccc(S(C)(=O)=O)cc1NCC#Cc1nc2c(N[C@@H]3CCN(C)C[C@@H]3F)cccn2c1SC(F)(F)F [Example 84, (3S,4R)-3-fluoro-N-(2-{3-[(5-methanesulfonyl-2-methoxyphenyl)amino]prop-1-yn-1-yl}-3-[(trifluoromethyl)sulfanyl]imidazo[1,2-a]pyridin-8-yl)-1-methylpiperidin-4-amine] | 5.52 to 5.82 | ≥ 10 °C | > 8.00 | ≤ 5.00 | 5.52 to 5.82 | 80 to 90% | 1500 to 3000 nM | 5 to 10 °C
CCNC(=O)c1ccc(NCC#Cc2nc3c(N[C@@H]4CCN(C)C[C@@H]4F)cccn3c2SC(F)(F)F)c(OC)c1 [Example 85, N-ethyl-4-{[3-(8-{[(3S,4R)-3-fluoro-1-methylpiperidin-4-yl]amino}-3-[(trifluoromethyl)sulfanyl]imidazo[1,2-a]pyridin-2-yl)prop-2-yn-1-yl]amino}-3-methoxybenzamide] | > 6.12 | ≥ 10 °C | > 8.00 | 5.10 to 5.30 | > 6.12 | 80 to 90% | < 750 nM | –
COc1cc(C(=O)NC2CC2)ccc1NCC#Cc1nc2c(N[C@@H]3CCN(C)C[C@@H]3F)cccn2c1SC(F)(F)F [Example 86, N-cyclopropyl-4-{[3-(8-{[(3S,4R)-3-fluoro-1-methylpiperidin-4-yl]amino}-3-[(trifluoromethyl)sulfanyl]imidazo[1,2-a]pyridin-2-yl)prop-2-yn-1-yl]amino}-3-methoxybenzamide] | > 6.12 | ≥ 10 °C | > 8.00 | 5.10 to 5.30 | > 6.12 | 80 to 90% | < 750 nM | –
